Experiments:
[1] = for mass density: Liquid, Vibrating tube method; for surface tension liquid-gas: Pendant drop shape
[2] = xn = mol fraction of the nth substance listed; details: x2 = 0; for surface tension liquid-gas: Pendant drop shape; for mass density: Liquid, Vibrating tube method

NCCO [2-aminoethan-1-ol]
[1]
Details | mass density [kg/m3]
298.15 K, 101 kPa | 1011.9
303.15 K, 101 kPa | 1008
308.15 K, 101 kPa | 1004
313.15 K, 101 kPa | 1000
318.15 K, 101 kPa | 996
323.15 K, 101 kPa | 992
328.15 K, 101 kPa | 988
333.15 K, 101 kPa | 983.9
338.15 K, 101 kPa | 979.8
343.15 K, 101 kPa | 975.8
348.15 K, 101 kPa | 971.6
353.15 K, 101 kPa | 967.5
358.15 K, 101 kPa | 963.4
363.15 K, 101 kPa | 959.2
373.1 K, 700 kPa | 950.9
383.15 K, 700 kPa | 942.3
393.15 K, 700 kPa | 933.5
403.15 K, 700 kPa | 924.7
413.15 K, 700 kPa | 915.7
423.15 K, 700 kPa | 906.4

[1]
Details | surface tension liquid-gas [mN/m]
303.15 K | 48.13
313.15 K | 46.66
323.15 K | 45.58
333.15 K | 44.63

O [water] + NCCO
[2]
Details | surface tension liquid-gas [mN/m]
303.15 K | 71.3
313.15 K | 69.55
323.15 K | 67.98
333.15 K | 66.16

[2]
Details | mass density [kg/m3]
323.15 K, 101 kPa | 988
328.15 K, 101 kPa | 985.7
333.15 K, 101 kPa | 983.2
338.15 K, 101 kPa | 980.5
343.15 K, 101 kPa | 977.7
348.15 K, 101 kPa | 974.8
353.15 K, 101 kPa | 971.8
358.15 K, 101 kPa | 968.6
363.15 K, 101 kPa | 965.3
373.1 K, 700 kPa | 958.6
383.15 K, 700 kPa | 951.2
393.15 K, 700 kPa | 943.4
403.15 K, 700 kPa | 935.1
413.15 K, 700 kPa | 926.3
423.15 K, 700 kPa | 917.1

Reference: the NIST ThermoML archive (doi:10.1021/je2010038)
